Measurements published in patent publication US6517812B1, “Inhibition of psychostimulant-induced and nicotine-induced craving” (The General Hospital Corporation, priority 1997, dated 2003).

Columns and labels:
Type in all cases: in vivo
[1] = tested on: human brain, limbic and paralimbic regions; test: BOLD fMRI of brain activation after cocaine infusion (KS maps, pre vs post infusion); conditions: voxels p<10^−5, four subjects
Protocol: Scanning was performed with a quadrature head-coil and a 1.5 T MR scanner (General Electric) modified for echo-planar imaging (Advanced NMR). Imaging involved the following protocol. First, a sagittal localizer scan [conventional T1-weighted spoiled gradient refocused gradient echo (SPGR) sequence; through-plane resolution=2.8 mm; 60 slices] was performed to orient, for subsequent scans, 15 contiguous axial slices covering the whole brain. This scan was also used as the structural scan for Talairach transformation. Next, an automated shimming technique was used to optimize B0 homogeneity (Reese et al., 1995, J. Magn. Reson. Imaging 5:739-745). This was followed by a SPGR T1-weighted flow-compensated scan (resolution=1.6 mm×1.6 mm×8 mm) scan, which was primarily obtained to aid Talairach transformation during data analysis (see Breiter et al., 1996, Arch. Gen. Psychiatry 53:595-606). The fourth scan was a T1-weighted echo planar inversion recovery sequence (TI=1200 msec, in-plane resolution=1.57 mm) for high-resolution structural images to be used in preliminary statistical maps, but not with Talairach transformed or averaged maps. Finally, BOLD imaging was performed using an asymmetric spin echo T2*-weighted sequence (TR=8000, TE=50, 180 refocusing pulse offset by −25 ms; FOV=40×20 cm; in-plane resolution=3.125 mm; through-plane resolution=8 mm; 15 contiguous axial slices covering the whole brain) to measure ‘activation’ (local changes in blood flow and oxygenation) (Kwong et al., 1992, Proc. Natl. Acad. Sci. 89:5675-5679; Ogawa et al., 1992, Proc. Natl. Acad. Sci. 89:5957-5955; Bandettini et al., 1992, Magn. Reson. Med. 25:390-397). Images were acquired interleaved for 136 time points for each infusion.
Motion correction: To reduce head motion, each subject was positioned using a bitebar, and echo-planar data was motion corrected using an algorithm (Jiang et al., 1995, Hun. Brain Mapp. 3:1-12) adapted from Woods et al (1992), and described elsewhere (Breiter et al., 1996, Arch. Gen. Psychiatry 53:595-606). […] After motion correction, time-series data were inspected to assure that no data set evidenced residual motion in the form of cortical rim or ventricular artifacts >1 voxel.
Talairach transformation: Each individual's set of infusion related functional images, along with the associated conventional structural scans, were transformed into Talairach space (Talairach et al., 1988, New York: Thieme Medical Publishers; Breiter et al., 1996, Arch. Gen. Psychiatry 53:595-606; Breiter et al., 1996, Neuron 17:875-887) and resliced in the coronal orientation over 57 slices with isotropic voxel dimensions (x,y,z=3.125 mm). […]

[2] = tested on: cocaine-dependent volunteers; test: Physiological monitoring (HR, MBP, ETCO2, ECG) after double-blind IV cocaine infusion; conditions: human
Protocol: Subjects were admitted to the MGH GCRC for the screening procedures; those meeting all criteria were boarded overnight on the unit in preparation for imaging the following day. The following morning the subject had bilateral intravenous catheters placed (right forearm for cocaine or saline infusion, left forearm for serial venous blood sampling for quantitative cocaine levels). Scanning was performed between 11AM and 3PM during which the subject was in the scanner for two periods of time each lasting from 45 to 90 minutes. During each scanning period, one infusion was given, either cocaine (0.6 mg/kg, maximum dose 40 mg) or saline (both in a volume of 10 cc given over 30 seconds IV) in a randomized, double blind order. Five different scans were performed during each period. The infusion itself was made 5 minutes into an 18 minute long blood oxygen level dependent (BOLD) scan. The BOLD infusion scan was bracketed by flow-sensitive alternating inversion recovery (FAIR) and visual stimulation BOLD scans (the data from these scans were used to delineate the global vs. regional signal changes from cocaine). The time interval between functional scans within a period was kept to a minimum. The entire sequence of 5 functional scans was completed within 45-60 minutes. The subject was removed from the scanner for a 15-30 minute rest and then was returned to magnet and the sequence was repeated for the second infusion. A minimum of two hours had to pass between each double-blind infusion.
Physiologic monitoring was conducted using an In Vivo OmniTrak 3100 patient monitoring system (Orlando, Fla.) modified to permit on-line computer acquisition of physiologic measurements. Each subject was fitted with chest leads to record the electrocardiogram (ECG) and to measure heart rate (HR), a nasal cannula to measure respiratory rate and end-expiratory carbon dioxide (ETCO2), and a blood pressure cuff to measure non-invasively systemic mean blood pressure (MBP). The temporal resolution of the system for sampling blood pressure was once every two minutes.
Precautions taken to ensure safe conduct of the study included use of ACLS trained personnel, frequent running of mock codes with clocked performance of tasks and strict definition of individual tasks, and presence of a cardiologist at the time of all infusions whose sole responsibility was to monitor subject safety. Before and after completion of both infusions, subjects underwent a 12-lead ECG to determine the absence of any interval change from the experiments. Because of magnetohydrodynamic effects on the ECG tracing, a baseline rhythm strip was obtained prior to each drug infusion and all subsequent tracings were compared to that one.
Physiological Data: The data analysis and graphing program IGOR (WaveMetrics, Inc.) was used to analyze the data. Data were first analyzed by a 2 way ANOVA with drug treatment (saline, cocaine) and time of measurement as factors. When significant F values were obtained for one of the physiologic measures, individual time points were compared by post-hoc t-tests to determine if (and at what times) the change from baseline was significant. The Bonferroni correction for multiple comparisons was used; the criteria for significance at the 0.05 level was p<0.007.

rat brain regions = test: CBV-weighted fMRI with MION contrast in rat after IV cocaine
rat frontal cortex = test: Laser Doppler-flowmetry (LDF) of regional cortical blood flow (CBF) in rat
Protocol: All procedures were carried out in accordance with NIH guidelines. Male Harlan Sprague-Dawley rats (225-300 gm) were anesthetized briefly with 1.5% halothane in oxygen for insertion of left femoral arterial and venous cannulae and placement of tracheostomy for mechanical ventilation (using a 16 gauge intravenous catheter, Inste-W, Becton Dickinson, Sandy, Utah). All wounds were infiltrated with 1% lidocaine before incision. Following surgery, the inspired halothane concentration was reduced to 0.7% and rats were paralyzed with 2 mg/kg intravenous pancuronium, followed by a continuous intravenous infusion of pancuronium at 2 mg/kg/hr. Pancuronium was dissolved in normal saline administered at 5 ml/kg/hr. Rats were mechanically ventilated (in a small animal volume controlled ventilator, Harvard Apparatus, Inc., South Natick, Mass.) with a 80/20 air/oxygen mixture, an inspiratory to expiratory ratio of 1:1, and an initial tidal volume of 3.0 ml at a rate of 40 breaths per minute. Ventilation parameters were adjusted to maintain normal arterial blood gases (pH=7.40±0.01, PaCO2=40±2, PaO2=145±10). Arterial blood samples (150 μl) withdrawn from cannula were analyzed for arterial partial pressures of oxygen, carbon dioxide, and pH (Ciba-Coming Model 1304) before administration of drugs, and at the end of each experiment before sacrifice, to ensure animal stability. Arterial blood pressure and rectal temperature were monitored throughout the experiment. […] Rats torsos were wrapped in two heating blankets (Gaymar, Orchid Park, N.Y.) circulating warm water to maintain core temperature at 37-38° C. To minimize MRI motion artifact, rats were placed into a custom plastic cradle attached to a head frame machined from delrin plastic (David Kopf Instruments, Fremont, Calif.); heads were fixed with plastic screws inserted into the ear canals and a bar inserted under the front incisors. Rat heads were shaved and covered with gel toothpaste to reduce magnetic susceptibility artifacts arising from air-tissue interfaces; ear canals and oropharynx were also filled with toothpaste. A surface coil was secured over the dorsal surface of the head before positioning the animal in the magnet center. Cocaine (RBI, Natick, Mass.), SCH-23390 (RBI, Natick, Mass.), and cocaine methiodide (NIDA, Bethesda, Md.) were dissolved in normal saline and administered in a 0.5 ml volume at a rate of 1 ml/min via the femoral vein. Sixty minutes passed before injections of cocaine were repeated.
Regional cortical blood flow was determined by LDF (Perimed, PF2B, Stockholm, Sweden) as described previously (Ayata, et al., 1996, J. Cereb. Blood Flow Metab., 16:539-541). Rats (n=8) were prepared exactly as for dynamic MR studies and positioned in a standard stereotaxic head frame. With the scalp incised and retracted, two holes (1-2 mm in diameter) were drilled through the skull 2 mm lateral to midline; one hole was 2 mm anterior to bregma overlying frontal cortex, and the other was 8 mm posterior to bregma to examine occipital cortex. The flow probe was positioned directly upon exposed dura mater in a puddle of mineral oil. […] All data were collected, stored, and analyzed using MacLab/8 data acquisition and analysis system (ADInstruments, Mountain View, Calif.). Arterial pressure was continuously monitored and the data stored; heart rate was calculated from arterial pressure pulses by the data acquisition software. […]

[3] = rat frontal cortex, cocaine 0.5 mg/kg IV
[4] = rat frontal cortex, cocaine 0.5 mg/kg IV, post infusion

COC(=O)[C@H]1[C@@H](OC(=O)c2ccccc2)C[C@@H]2CC[C@H]1N2C [cocaine]
percent signal change, NAc/SCC Left ([1]; retest condition): 2.3% | percent signal change, NAc/SCC Right ([1]; retest condition): 2.1% | percent signal change, NAc/SCC Left ([1]; test condition): 3.8% | percent signal change, NAc/SCC Right ([1]; test condition): 2.4% | cardiac rhythm (ECG) ([2]; all subjects throughout the study): Normal sinus rhythm | time for HR, MBP and ETCO2 to return to baseline ([2]; cocaine 0.6 mg/kg IV): ≤ 2 h | heart rate (HR) ([2]; cocaine 0.6 mg/kg IV over 30 seconds, n=17, 2 minutes post-infusion): 79±16 bpm | mean blood pressure (MBP) ([2]; cocaine 0.6 mg/kg IV, 2 minutes post-infusion): 101±12 torr | mean blood pressure (MBP) ([2]; cocaine 0.6 mg/kg IV, 5 minutes): 111±15 torr | end-tidal carbon dioxide (ETCO2) ([2]; cocaine 0.6 mg/kg IV, by 10 minutes): 36±4 mm Hg | heart rate (HR) ([2]; cocaine 0.6 mg/kg IV, n=17, 5 minutes post infusion): 82±12 bpm | heart rate (HR) ([2]; cocaine 0.6 mg/kg IV, n=17, 10 minutes post infusion): 93±14 bpm | maximum increase of cortical CBV over baseline (rat brain regions; [3]): 32% | time to peak CBV (rat brain regions; [3]): approximately 3.5 minutes | time of return of CBV to baseline (rat brain regions; [4]): ≤ 25 min | time to maximum CBV change, all cortical and subcortical regions (rat brain regions; rat, after initiation of 0.5 mg/kg cocaine infusion): 3 to 6 min | increase in CBV at peak, agranular lateral frontal neocortex (rat brain regions; rat, cocaine 0.5 mg/kg IV): ~30% | increase in CBV at peak, agranular medial frontal neocortex (rat brain regions; rat, cocaine 0.5 mg/kg IV): approximately 40% | average CBV response of four subcortical regions relative to five frontal and parietal cortical regions (rat brain regions; rat, cocaine 0.5 mg/kg IV, p<0.005): 45% | maximum increase of cortical CBF over baseline (rat frontal cortex; [3]): 41% | time to peak CBF (rat frontal cortex; [3]): approximately 3.5 minutes | time of return of CBF to baseline (rat frontal cortex; [4]): ≤ 25 min | maximum elevation of frontal cortex blood flow (rat frontal cortex; rat, LDF, after 1 mg/kg cocaine): 35±3
